Measured values: PMC4291487, “Stress-induced ceramide generation and apoptosis via the phosphorylation and activation of nSMase1 by JNK signaling” (Cell Death and Differentiation, 2014)
Substitutions are numbered along the chain they refer to.

How the values were obtained:
Assay type in all cases: biochemical
[1] = target: T1, nSMase1 (wild-type), zebrafish (Danio rerio, UniProt F1QUD7, S270A); test: C6-NBD-ceramide release assay; settings: 37 °C; basal enzyme, not JNK-treated
T1 construct: gene smpd2a; zebrafish cDNA
T1 sequence (F1QUD7 1-421 S270A): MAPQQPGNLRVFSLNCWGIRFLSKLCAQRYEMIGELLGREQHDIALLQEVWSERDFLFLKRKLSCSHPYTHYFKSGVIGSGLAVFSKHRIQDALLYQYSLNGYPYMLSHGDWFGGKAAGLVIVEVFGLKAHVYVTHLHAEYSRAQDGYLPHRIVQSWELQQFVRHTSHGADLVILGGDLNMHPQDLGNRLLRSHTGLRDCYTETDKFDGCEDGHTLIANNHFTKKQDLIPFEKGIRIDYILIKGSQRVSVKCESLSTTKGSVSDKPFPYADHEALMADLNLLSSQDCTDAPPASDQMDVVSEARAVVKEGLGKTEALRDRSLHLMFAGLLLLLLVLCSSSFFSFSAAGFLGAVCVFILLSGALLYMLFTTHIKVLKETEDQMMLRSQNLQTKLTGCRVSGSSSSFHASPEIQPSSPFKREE

[2] = target: T2, nSMase1 (wild-type), zebrafish (Danio rerio, UniProt F1QUD7); test: C6-NBD-ceramide release assay; settings: 37 °C; basal enzyme, not JNK-treated
T2 construct: gene smpd2a; zebrafish cDNA
T2 sequence (F1QUD7 1-421): T1 sequence (F1QUD7 1-421 S270A) with A270S

mouse JNK1 = target: T3, mouse JNK1 (Mus musculus, UniProt Q91Y86); settings: 10 μM SP600125; 0.25 mM ATP, 10 mM MgCl2, pH 7.4, 30 °C, 30 min
T3 construct: gene Mapk8; commercial recombinant protein (Cell Signaling Technology)
T3 sequence (Q91Y86 whole entry): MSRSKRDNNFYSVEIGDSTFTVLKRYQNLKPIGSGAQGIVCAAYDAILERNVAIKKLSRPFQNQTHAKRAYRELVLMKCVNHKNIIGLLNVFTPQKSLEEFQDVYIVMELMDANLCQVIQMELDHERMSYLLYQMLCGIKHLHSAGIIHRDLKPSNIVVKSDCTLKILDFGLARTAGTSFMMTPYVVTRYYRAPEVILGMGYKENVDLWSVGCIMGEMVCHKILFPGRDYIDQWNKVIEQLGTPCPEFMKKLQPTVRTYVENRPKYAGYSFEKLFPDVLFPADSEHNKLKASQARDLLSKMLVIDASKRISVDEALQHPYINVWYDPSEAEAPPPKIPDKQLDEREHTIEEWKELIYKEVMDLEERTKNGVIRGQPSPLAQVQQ

SMILES | C6-NBD-ceramide release assay [1] | C6-NBD-ceramide release assay [2] | phosphorylation inhibition at 10 μM (mouse JNK1)
CCCCCCCCCCCCC/C=C/[C@@H](O)[C@H](COP(=O)([O-])OCC[N+](C)(C)C)NC(=O)CCCCCNc1ccc([N+](=O)[O-])c2nonc12 [C6-NBD-sphingomyelin] | nSMase activities of the recombinant proteins were determined using C6-NBD-sphingomyelin | nSMase activities of the recombinant proteins were determined using C6-NBD-sphingomyelin | 
O=C1c2ccccc2-c2n[nH]c3cccc1c23 [SP600125, Anthra[1,9-cd]pyrazol-6(2H)-one] |  |  | wild-type pulsed with SP600125 were not phosphorylated
